Laboratory results published in patent publication US9051295B2, “1-substituted indazole derivative” (Dainippon Sumitomo Pharma Co., Ltd., priority 2012, dated 2015).

These compounds were tested on Slc: ddY mice (assay: Novel object recognition test in mice (mORT)). Conditions: at 0.3 mg/kg, 1.0 mg/kg or 3 mg/kg.
Type: in vivo
Procedure: Evaluation of Cognitive Function with Mice in Novel Object Recognition Test (Hereinafter, Referred to as “mORT”)
Slc: ddY mice (25 g to 30 g, male, Japan SLC) can be used in the novel object recognition test wherein the interval between the 1st trial (training) and the 2nd trial (test) correlates with the memory loss for the objects used in the 1st trial, and a significant memory-loss is observed when the 2nd trial is performed 24 hours after the 1st trial. According to the test mechanism, the present compounds were administered prior to the 1st trial, and the enhancement effect on memory in the 2nd trial was evaluated.
With `CO[C@H]1CC[C@H](NC(=O)N2CCC(n3ncc4cc(C)ccc43)CC2)CC1` [Example 1, N-(trans-4-methoxycyclohexyl)-4-(5-methyl-1H-indazol-1-yl)piperidine-1-carboxamide] the “efficacy at higher doses” value was “the efficacy did not decrease”. `CO[C@H]1CC[C@H](NC(=O)N2CCC(n3ncc4cc(C5CC5)ccc43)CC2)CC1` [Example 74, 4-(5-cyclopropyl-1H-indazol-1-yl)-N-(trans-4-methoxycyclohexyl)piperidine-1-carboxamide] was tested, and the “efficacy at higher doses” value was “the efficacy did not decrease”.

The compounds below were run against T1, human α7 nAChR (Homo sapiens, UniProt P36544) (assay: Evaluation of PAM activity with human α7 nACh receptor stably expressing cells (aequorin luminescence, FDSS7000, ACh EC20)). Conditions: statement on Table 8 data.
T1 construct: expressed in transfected cells; host or cells: GH4C1 cells (rat pituitary, ATCC CCL-82.2)
T1 sequence (P36544 23-502): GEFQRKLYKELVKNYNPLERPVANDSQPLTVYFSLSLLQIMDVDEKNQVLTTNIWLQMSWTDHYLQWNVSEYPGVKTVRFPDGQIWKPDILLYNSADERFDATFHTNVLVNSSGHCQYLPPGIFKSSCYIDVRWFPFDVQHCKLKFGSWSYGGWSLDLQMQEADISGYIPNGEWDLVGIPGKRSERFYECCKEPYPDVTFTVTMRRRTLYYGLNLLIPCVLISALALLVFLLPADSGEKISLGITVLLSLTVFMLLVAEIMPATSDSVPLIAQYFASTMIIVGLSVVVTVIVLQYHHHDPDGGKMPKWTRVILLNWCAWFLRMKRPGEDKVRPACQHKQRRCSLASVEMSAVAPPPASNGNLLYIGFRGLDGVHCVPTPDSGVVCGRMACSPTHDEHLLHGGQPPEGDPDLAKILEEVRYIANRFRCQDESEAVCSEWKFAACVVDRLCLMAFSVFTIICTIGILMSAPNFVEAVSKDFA
Type: cell-based
From the text: Evaluation of PAM Activity with Human α7 nACh Receptor Stably Expressing Cells
(1) Human α7 nAChR Stably Expressing Cells
Human α7 nAChR stably expressing cells were generated and cultured. In detail, GH4C1 cells derived from rat pituitary (cat#CCL-82.2, ATCC, USA) were used as a host cell. PcDNA3.1Zeo vector containing a nucleotide sequence encoding a protein GenBank BAC81731 and pcDNA3.1 vector containing human α7 nAChR gene (cat#V790-20, invitrogen, Carlsbad, Calif., USA) were transfected to the cells to give aequorins and human α7 nAChR stably expressing cells respectively. The aequorins and human α7 nAChR stably expressing cells were screened with Zeocin (cat#R25001, invitrogen, Carlsbad, Calif., USA) and Geneticin (cat#10131-027, invitrogen, Carlsbad, Calif., USA) respectively.
The cells were cultured in F-10 Nutrient Mixture (Ham) medium (cat#11550-043, invitrogen, Carlsbad, Calif., USA) containing 2.5% fetal bovine serum (cat#2917354, ICN Biomedicals, Inc, USA), 15% inactivated horse serum (cat#26050-088, invitrogen, Carlsbad, Calif., USA), 1 μg/mL Geneticin, and 5 μg/mL Puromycin (cat#14861-84, invitrogen, Carlsbad, Calif., USA), in a Collagen Type 1-coated dish (cat#4030-010, iwaki, Tokyo, Japan). During the culture, the medium was replaced with fresh medium in every 2 to 3 days, and the cells were treated with TrypLE Express (cat#45604-021, invitrogen, Carlsbad, Calif., USA) to collect them in every 7 days. Thus, the cells were subcultured.
7 Days after subculturing, the cells were treated with TrypLE Express to collect them when they were about 80% confluent. The cells were suspended in a reaction medium containing Hanks (cat#14065-056, invitrogen, Carlsbad, Calif., USA)/20 mmol/L Hepes (cat#15630-080, invitrogen, Carlsbad, Calif., USA), Buffer (pH 7.4), F-10 Nutrient Mixture (Ham), and 0.1 mg/mL Geneticin, and the suspension was seeded in a 384-well plate (cat#781090, Greiner, Germany) at 20000 cells/25 μL per well.
On the next day after seeding, Viviren (cat#E649X, Promega, Madison, Wis., USA) was added to the medium so that the final concentration could be 4 μmol/L (15 μL/well). The plates were centrifuged and then placed in the dark for 4 hours at room temperature.
(2) Preparation of the Test Samples
Each of the test compounds was dissolved in DMSO to prepare each test sample at a concentration of 1000-fold the final concentration. To the solution was added Hanks/20 mM HEPES/0.2% BSA (cat#A3803, Sigma, St. Louis, Mo., USA), and the concentration was adjusted to 6-fold the final concentration.
(3) Evaluation of PAM Activity
FDSS7000 (Hamamatsu Photonics) was used to detect the luminescence signal evoked by α7 nAChR stimulation. The cells and a luminescent substrate were put on a plate, and the test sample was added thereto. […] After the addition of ACh, the luminescence signal (the central wavelength: 465 nm) was measured for 138 seconds to calculate RLU (Max-Min). The ratio of the RLU (Max-Min) of the test-compound-containing wells to that of the control wells was defined as PAM activity.
In the case of `COCC1CCC(NC(=O)N2CCC(n3ncc4cc(C)ccc43)CC2)CC1` (stereo not shown) [Example 220], the “PAM activity for α7 nAChR (in words)” value is reported as “stronger PAM activity than others”.

Same assay, conditions: test compound 10 μmol/L; ACh at EC20; ratio of RLU (Max-Min) of test-compound wells to control wells
With `CO[C@H]1CC[C@H](NC(=O)N2CCC(n3ncc4cc(C)ccc43)CC2)CC1` [Example 1, N-(trans-4-methoxycyclohexyl)-4-(5-methyl-1H-indazol-1-yl)piperidine-1-carboxamide] the “α7PAM (%) @ 10 μmol/L” value was 1209%. `CO[C@H]1CC[C@H](NC(=O)N2CCC(n3ncc4cc(C5CC5)ccc43)CC2)CC1` [Example 74, 4-(5-cyclopropyl-1H-indazol-1-yl)-N-(trans-4-methoxycyclohexyl)piperidine-1-carboxamide] was tested, and the “α7PAM (%) @ 10 μmol/L” value was 1226%. For `CO[C@H]1CCC[C@H](NC(=O)N2CCC(n3ncc4cc(C5CC5)ccc43)CC2)C1` [Example 211, 4-(5-cyclopropyl-1H-indazol-1-yl)-N-[(1S,3S)-3-methoxycyclohexyl]piperidine-1-carboxamide], the “α7PAM (%) @ 10 μmol/L” value was 1034%. With `COCc1c(C)ccc2c1cnn2C1CCN(C(=O)NC2CCC(F)(F)CC2)CC1` [Example 213] the “α7PAM (%) @ 10 μmol/L” value was 800%. With `CO[C@H]1CC[C@H](NC(=O)N2CCC(n3ncc4c(C)c(C)ccc43)CC2)CC1` [Example 225] the “α7PAM (%) @ 10 μmol/L” value was 480%. In the case of `COC(C)c1c(C)ccc2c1cnn2C1CCN(C(=O)NC2CCC(F)(F)CC2)CC1` (stereo not shown) [Example 232], the “α7PAM (%) @ 10 μmol/L” value is reported as 860%. For `O=C(NC1CCC(F)(F)CC1)N1CCC(n2ncc3cc(OC4CC4)ccc32)CC1` [Example 249, 4-[5-(cyclopropoxy)-1H-indazol-1-yl]-N-(4,4-difluorocyclohexyl)piperidine-1-carboxamide], the “α7PAM (%) @ 10 μmol/L” value was 1463%. With `CCc1ccc2c(cnn2C2CCN(C(=O)N[C@H]3CC[C@H](OC)CC3)CC2)c1OC` [Example 255, 4-(5-ethyl-4-methoxy-1H-indazol-1-yl)-N-(trans-4-methoxycyclohexyl)piperidine-1-carboxamide] the “α7PAM (%) @ 10 μmol/L” value was 1096%. `CCc1ccc2c(cnn2C2CCN(C(=O)NC3CCOCC3)CC2)c1OC` [Example 275, 4-(5-ethyl-4-methoxy-1H-indazol-1-yl)-N-(tetrahydro-2H-pyran-4-yl)piperidine-1-carboxamide] was tested, and the “α7PAM (%) @ 10 μmol/L” value was 1093%. With `CO[C@H]1CC[C@H](NC(=O)N2CCC(n3ncc4cc(OC(F)F)ccc43)CC2)CC1` [Example 291, 4-[5-(difluoromethoxy)-1H-indazol-1-yl]-N-(trans-4-methoxycyclohexyl)piperidine-1-carboxamide] the “α7PAM (%) @ 10 μmol/L” value was 1433%. For `O=C(NC1CCOCC1)N1CCC(n2ncc3cc(C(F)(F)F)ccc32)CC1` [Example 297], the “α7PAM (%) @ 10 μmol/L” value was 340%. `O=C(NC1CCOCC1)N1CCC(n2ncc3c(OC(F)(F)F)cccc32)CC1` [Example 304] was tested, and the “α7PAM (%) @ 10 μmol/L” value was 380%. For `COc1c(C(F)(F)F)ccc2c1cnn2C1CCN(C(=O)NC2CCC(OC)CC2)CC1` (stereo not shown) [Example 317], the “α7PAM (%) @ 10 μmol/L” value was 360%.
